In the supplement of paper PMC8671470:

Assays:
Conditions in all cases: 72 h
[1] = test system: BV-173; test: cell viability (% survival relative to DMSO control, bortezomib = 0%); higher = less cytotoxic
Summary of the method: (§1)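 Fifteen myeloid leukaemia cell lines were exposed to compounds at 1, 10, 100, 1000 or 10000 nM in 384-well plates for 72 h at 37 °C and 5% CO2. Viability was read by CellTiter-Glo luminescence and normalised, with vehicle as 100% and a 10 µM positive control as 0%. Values are percent survival averaged over duplicates.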

[2] = test system: KCL-22; test: as above
Summary of the method: as §1

[3] = test system: SHI-1; test: as above
Summary of the method: as §1

[4] = test system: LAMA-84; test: as above
Summary of the method: as §1

[5] = test system: HL-60; test: as above
Summary of the method: as §1

[6] = test system: ML-2; test: as above
Summary of the method: as §1

[7] = test system: KG-1; test: as above
Summary of the method: as §1

[8] = test system: NOMO-1; test: as above
Summary of the method: as §1

[9] = test system: HEL; test: as above
Summary of the method: as §1

[10] = test system: MV4-11; test: as above
Summary of the method: as §1

[11] = test system: K-562; test: as above
Summary of the method: as §1

[12] = test system: MOLM-13; test: as above
Summary of the method: as §1

[13] = test system: KU-812; test: as above
Summary of the method: as §1

[14] = test system: Mono-Mac-6; test: as above
Summary of the method: as §1

[15] = test system: THP-1; test: as above
Summary of the method: as §1

[16] = test system: BV-173
Summary of the method: (§2)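 Fifteen myeloid leukaemia cell lines were seeded in RPMI 1640 at densities titrated to the linear growth range and placed in 384-well plates with acoustically pre-printed compounds at five tenfold doses from 1 to 10,000 nM, in duplicate. After 72 h at 37 °C with 5% CO2, luminescent ATP viability was normalised to vehicle and to a positive control at 10 µM, and curves were fitted with a four-parameter log-logistic model. The IC50 was obtained from these fits.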

[17] = test system: KCL-22
Summary of the method: as §2

[18] = test system: SHI-1
Summary of the method: as §2

[19] = test system: LAMA-84
Summary of the method: as §2

[20] = test system: HL-60
Summary of the method: as §2

[21] = test system: ML-2
Summary of the method: as §2

[22] = test system: KG-1
Summary of the method: as §2

[23] = test system: NOMO-1
Summary of the method: as §2

[24] = test system: HEL
Summary of the method: as §2

[25] = test system: MV4-11
Summary of the method: as §2

[26] = test system: K-562
Summary of the method: as §2

[27] = test system: MOLM-13
Summary of the method: as §2

[28] = test system: KU-812
Summary of the method: as §2

[29] = test system: Mono-Mac-6
Summary of the method: as §2

[30] = test system: THP-1
Summary of the method: as §2

NCc1ccc(S(N)(=O)=O)cc1 [4-Homosulfanilamide]
cell viability [%]
Conditions | 1 nM | 10 nM | 100 nM | 1000 nM | 10000 nM
[1] | 96.7 | 85.9 | 91.7 | 96.6 | 97.6
[2] | 99.7 | 107 | 103 | 103 | 106
[3] | 96.8 | 107 | 104 | 102 | 111
[4] | 99.5 | 97.7 | 94.7 | 99.3 | 100
[5] | 88.1 | 97 | 109 | 82.1 | 110
[6] | 90.9 | 92.3 | 94.7 | 91.8 | 102
[7] | 91.4 | 96 | 97.7 | 99.1 | 96.6
[8] | 97 | 96.1 | 98.3 | 99.8 | 100
[9] | 94.2 | 71.2 | 99.3 | 98 | 106
[10] | 93.9 | 87.5 | 90.2 | 89.9 | 106
[11] | 85.1 | 90 | 87.5 | 104 | 102
[12] | 80.7 | 93.2 | 87.3 | 80 | 105
[13] | 97.9 | 93.1 | 96.3 | 100 | 98.1
[14] | 107 | 101 | 106 | 96 | 92.3
[15] | 98.5 | 92.5 | 105 | 96.2 | 99.5

Conditions | IC50 (cell viability) [µM]
[16] | > 10
[17] | > 10
[18] | > 10
[19] | > 10
[20] | > 10
[21] | > 10
[22] | > 10
[23] | > 10
[24] | > 10
[25] | > 10
[26] | > 10
[27] | > 10
[28] | > 10
[29] | > 10
[30] | > 10

O=C(CCl)N(CCCNC(=O)C(F)(F)F)c1ccc([N+](=O)[O-])cc1 [ML175]
cell viability [%]
Conditions | 1 nM | 10 nM | 100 nM | 1000 nM | 10000 nM
[1] | 122 | 99.9 | 101 | -0.0318 | -0.742
[2] | 113 | 118 | 85 | 82.5 | -0.718
[3] | 95 | 127 | 85.1 | 107 | -0.834
[4] | 107 | 106 | 90.5 | 89.9 | -0.333
[5] | 104 | 111 | 110 | 83.4 | -1.03
[6] | 97 | 102 | 94.5 | 0.519 | -0.998
[7] | 109 | 109 | 96.8 | 6.67 | -0.879
[8] | 96.3 | 97.8 | 97.8 | 0.0839 | -0.851
[9] | 105 | 106 | 96.3 | -0.0497 | -0.423
[10] | 93.6 | 93 | 95.6 | -0.18 | -0.931
[11] | 101 | 91.9 | 99.6 | 95.7 | -0.364
[12] | 89.5 | 115 | 92.4 | 0.57 | -1.51
[13] | 99.1 | 96.8 | 89.7 | 81.3 | -0.456
[14] | 101 | 104 | 98.2 | 44.6 | -1.09
[15] | 99.7 | 102 | 91.9 | 94.2 | -2.38

Conditions | IC50 (cell viability) [µM]
[16] | 0.32
[17] | 2.07
[18] | 3.41
[19] | 2.54
[20] | 2.13
[21] | 0.288
[22] | 0.341
[23] | 0.305
[24] | 0.297
[25] | 0.309
[26] | 2.95
[27] | 0.276
[28] | 2.23
[29] | 0.896
[30] | 2.77

O=[As]O[As]=O (stereo not given) [Arsenic trioxide]
cell viability [%]
Conditions | 1 nM | 10 nM | 100 nM | 1000 nM | 10000 nM
[1] | 96.1 | 97.2 | 105 | 95.5 | 28.4
[2] | 107 | 107 | 102 | 99 | 74.4
[3] | 105 | 97.1 | 112 | 94.7 | 57.6
[4] | 104 | 100 | 109 | 90.2 | 53.2
[5] | 108 | 105 | 109 | 96.9 | 55.6
[6] | 109 | 96.4 | 103 | 94.9 | 76.2
[7] | 103 | 106 | 108 | 97 | 86.4
[8] | 98 | 96 | 110 | 100 | 71.4
[9] | 98.8 | 102 | 120 | 96.8 | 74.9
[10] | 97 | 108 | 104 | 95.1 | 20.4
[11] | 91.1 | 93.8 | 105 | 102 | 49.5
[12] | 110 | 104 | 124 | 102 | 18.5
[13] | 98.5 | 105 | 112 | 93.4 | 61.5
[14] | 98.2 | 104 | 109 | 102 | 43.2
[15] | 93.9 | 96.1 | 106 | 92.4 | 82.2

Conditions | IC50 (cell viability) [µM]
[16] | 4.7
[17] | > 10
[18] | 9.09
[19] | 7.24
[20] | 8.69
[21] | > 10
[22] | > 10
[23] | > 10
[24] | > 10
[25] | 4.27
[26] | > 10
[27] | 4.97
[28] | > 10
[29] | 8.74
[30] | > 10
